The values that follow come from patent US20250204541A1, “GAS PHASE TREATMENT OF PRODUCE” (priority 2022, published 2025).

What all share (format): in vivo
The test system of series [1] is grapes. Put plainly: Visible appearance of vapor-treated grapes. As for the experimental part: Example 12. The antifungal activity of AITC and DADS vapor against Botrytis cinerea (Bc) in grapes was tested. All samples were wounded by making a 3 mm deep puncture in the skin. Samples were infected by dispensing 1000 Bc spores suspended in 10 μL of water in the wound. The test groups consisted of grapes that were: uninfected and untreated; infected and untreated; exposed to the vapor of 3 mL of AITC in a Petri dish for 72 hours; and exposed to the vapor of 3 mL of DADS in a Petri dish for 72 hours. FIG. 17 quantifies the infection results. […] Both AITC and DADS vapor were effective at controlling Bc mold. Treatment with AITC can potentially lead to changes in color or flavor of the grapes.

For series [2], the system named is Colletotrichum gloeosporioides (Cg). Put plainly: Antifungal activity of vapor against Colletotrichum gloeosporioides in avocados. As for the experimental part:
Example 7. The antifungal activity of AITC and DADS vapor against Colletotrichum gloeosporioides (Cg) was tested in avocados. All test pieces were wounded by removing the stem and infected by dispensing 1000 Cg spores suspended in 10 μL of water into the wound. The test groups consisted of avocados that were: untreated and uninfected; untreated and infected; treated by dipping in a solution of 0.1 g/L of prochloraz; exposed to the vapor of 3 mL of AITC disposed in a Petri dish; and exposed to the vapor of 3 mL of DADS disposed in a Petri dish. FIG. 9 quantifies the infection results. AITC vapor reduced the incidence of Cg mold by 97% compared to the untreated test group and 70% compared to the prochloraz treated test group. DADS vapor reduced the incidence of Cg mold by 60% compared to the untreated test group.
Example 8. The antifungal activity of a range of DADS vapor exposure times was tested against Cg in avocados. All test pieces were wounded by removing the stem and infected by dispensing 1000 Cg spores suspended in 10 μL of water into the wound. The test groups consisted of avocados that were: infected and untreated; and exposed to the vapor of 3 mL of DADS in a Petri dish for 24 hours, 48 hours, and 72 hours. FIG. 10 quantifies the infection results. Test group exposed to DADS vapor at all exposure times reduced the incidence of Cg mold compared to the untreated test group. A 24 hour DADS exposure reduced the incidence of Cg mold by 8%. A 48 hour DADS exposure reduced the incidence of Cg mold by 25%. A 72 hour DADS exposure reduced the incidence of Cg mold by 57%.
Example 9. The antifungal activity of a range of AITC and carvacrol vapor exposure times was tested against Cg in avocados. To measure the effect of the various treatments on ripening, durometer shore was taken after 7 days of incubation at ambient temperature and high humidity. All samples were wounded by removing the stem and infected by dispensing 1000 Cg spores suspended in 10 μL of water in the wound. The test groups consisted of avocados that were: infected and left untreated on the benchtop; infected and left untreated under a fume hood; exposed to the vapor of 3 mL of AITC in a Petri dish for 24 hours, 48 hours, and 72 hours; and exposed to the vapor of 3 mL of carvacrol in a Petri dish for 72 hours. FIG. 11 quantifies the infection results. […] All exposure times to AITC vapor reduced the incidence of Cg mold compared to the untreated samples. A 24 hour AITC exposure reduced the incidence of Cg mold by 90%. A 48 hour AITC exposure reduced the incidence of Cg mold by 97%. A 72 hour AITC exposure reduced the incidence of Cg mold by 83%. […]
Example 21. The antifungal activity of avocados exposed to AITC vapor and prochloraz was tested against Cg in avocados. To measure the effect of the various treatments on ripening, durometer shore was taken after 5 days of incubation at ambient temperature (about 20° C. to about 25° C.) and high humidity (about 88% relative humidity to about 93% relative humidity). All samples were wounded by removing the stem and infected by dispensing 1000 Cg spores suspended in 10 μL of water in the wound. Exposure to vapor was done by placing the avocados in an airtight container, dispensing AITC onto Whatman filter paper discs, suspending the discs in front of a battery-powered fan, closing the container and incubating the avocados for 30 minutes. After vapor exposure, the avocados were left at ambient temperature, high humidity, and assessed for Cg mold on day 5. Treatment groups consisted of avocados that were: exposed for 30 minutes to the vapor of 125 μL of AITC disposed on a filter paper disc; dipped in a solution of 0.1 g/L of prochloraz and placed to dry on a rack in front of a fan for 30 min; infected and left untreated; and uninfected and untreated. […] To prepare the 0.1 g/L of prochloraz, 10 mg of prochloraz was mixed with 10 mL of ethanol and 90 mL of water. […] A 24 hour AITC exposure reduced the incidence of Cg mold by 90%. […]

For series [3], the system named is Penicillium italicum (Pi). Put plainly: Antifungal activity of vapor against Penicillium italicum in wounded, infected mandarins. The conditions noted are these: 72 hours vapor of 3 mL in a Petri dish. The method, then: Example 2. The antifungal activity of allyl isothiocyanate (AITC) and DADS vapor was tested against Pd and Penicillium italicum (Pi) in mandarins. All samples were wounded by puncturing with a screw. Mandarins were infected by dispensing either 1000 Pd spores or 1000 Pi spores suspended in 10 μL into the wound. The test groups consisted of mandarins that were: uninfected and untreated; uninfected and treated by dipping in a solution of 1 g/L of imazalil; infected with Pd and untreated; infected with Pd and exposed to AITC; infected with Pd and exposed to DADS; infected with Pi and untreated; infected with Pi and exposed to AITC; and infected with Pi and exposed to DADS. Exposure to AITC or DADS consisted of exposing the mandarins for 72 hours to the vapor of 3 mL of the respective compound dispensed in a Petri dish. […] DADS vapor reduced the incidence of Pd mold by 85% and Pi mold by 30% compared to the respective untreated/infected test groups. […] Both AITC and DADS were effective at preventing fungal growth. The inhibition from AITC was approximately 100%, with some changes in visible appearance.

Regarding `C=CCN=C=S` [AITC, allyl isothiocyanate], the “visible appearance of treated fruit” value in series [1] (in vivo) is “darkening of the fruit”. In addition, the “reduction of the incidence of Cg mold” value in series [2] (24 hour AITC exposure as printed) is listed as 90%; in series [2] (Example 9, vapor of 3 mL in a Petri dish for 24 hours, 7 days of incubation) it was 90%; in series [2] (Example 9, vapor of 3 mL in a Petri dish for 48 hours, 7 days of incubation) it was 97%; in series [2] (Example 9, vapor of 3 mL in a Petri dish for 72 hours, 7 days of incubation), 83%. The “incidence of Cg mold” value in series [2] (Example 21, 30 minutes vapor of 125 μL on filter paper disc, assessed on day 5) was “reduced the incidence of Cg mold compared to the untreated samples and the prochloraz treated sample”. Moreover, the “reduction of the incidence of Cg mold compared to the untreated test group” value in series [2] (vapor of 3 mL in a Petri dish) is recorded as 97%. Further, the “reduction of the incidence of Cg mold compared to the prochloraz treated test group” value in series [2] (vapor of 3 mL in a Petri dish, prochloraz 0.1 g/L dip) is 70%. Besides, the “inhibition of fungal growth” value in series [3] (mandarins infected with Pi) is “approximately 100%”. Further, the “effect on Pi infection” value in series [3] (mandarins) is “substantially prevented”.
Take `C=CCSSCC=C` [DADS, diallyl disulfide]: in series [1] (grapes, vapor of 3 mL in a Petri dish for 72 hours), the “visible appearance of treated fruit” value is on record as “appeared unchanged”. Further, the “reduction of the incidence of Cg mold” value is listed as 8% in series [2] (Example 8, vapor of 3 mL in a Petri dish for 24 hours); 25% in series [2] (Example 8, vapor of 3 mL in a Petri dish for 48 hours); 57% in series [2] (Example 8, vapor of 3 mL in a Petri dish for 72 hours). Also, the “reduction of the incidence of Cg mold compared to the untreated test group” value in series [2] (vapor of 3 mL in a Petri dish) is 60%. Moreover, the “reduction of the incidence of Pi mold compared to the untreated/infected test group” value in series [3] (mandarins) came out at 30%.
